Experimental data published in patent US9790563B2, “Method for treating liver cancer” (priority 2014, dated 2017).

Assays:
ErbB3 in Hep3Bx cells = experiment: siRNA silencing of ErbB3 (FIG. 12a); assay type: cell-based
Protocol: (§1) 5 μL of 20 μM siRNA is mixed with 1 μL of the transfection reagent and 100 μL of the medium without FBS. 30 minutes later, the siRNA-containing mixture is added into the medium-discarded Hep3Bx cells with a final volume of 1 mL. After incubating for 5 hours, the FBS containing medium as added to a final volume of 2 mL. The following experiment is performed 4-day posttransfection.
(§2) ErbB3-specific siRNA with a sequence as set forth in SEQ ID NO: 13 is used to silence expression of ErbB3 in the Hep3Bx cells. The control siRNA with a sequence as set forth in SEQ ID NO: 10 is used as a control.

[1] = test system: ErbB3-specific siRNA-treated Hep3Bx cells; experiment: crystal violet staining (FIG. 12b); assay type: cell-based; conditions: ErbB3-specific siRNA-treated Hep3Bx cells compared to control siRNA-treated, 120 hours
Protocol: as §1, §2

[2] = test system: myc-HBx-transfected Hep3B cells (group D2); experiment: crystal violet staining (FIG. 4c); assay type: cell-based; conditions: 1 μM, 120 hours
Protocol: (§3) The plasmids are transfected into the Hep3B cells as the following procedure: 1 μg of the plasmids are mixed with 1 μL of TransIT2020 transfection reagent, and the mixture is incubated with the fresh medium without FBS at room temperature for 30 minutes to obtain the vector-transfected Hep3B cells (group D1) and the myc-HBx-transfected Hep3B cells (group D2).
Moreover, 1×10^5 cells of the vector-transfected Hep3B cells (group D1) and the myc-HBx-transfected Hep3B cells (group D2) are further treated with 1 μM of lapatinib. Also, DMSO is used to treat the vector-transfected Hep3B cells (group D1) and the myc-HBx-transfected Hep3B cells (group D2) as a solvent control. After culturing at 37° C. for 120 hours, the supernatants are removed and 10 mg/mL of crystal violet solution dissolving in 30% ethanol is added to the cultured Hep3B cells for 15 to 30 minutes. Crystal violet solution can stain the nuclei of the living cells adhering to the petri dishes.

[3] = test system: myc-HBx-transfected Hep3B cells (group D2); experiment: cell viability after lapatinib treatment (FIG. 4b); assay type: cell-based
From the text: (§4) In the trial (D) and (E), HBx is introduced into the Hep3B cells via transient transfection and virus transduction, respectively. Cytotoxicity of lapatinib to the HBx-transfected or HBx-virus transduced Hep3B cells is further monitored by the crystal violet assay.
That is, pcDNA6/myc-His A vector is used as a control (group D1) and the C-terminal myc-tagged HBx plasmid expressing myc-HBx expression protein constructed with primers with sequences set forth in SEQ ID NOs. 5 and 6 is used as the group D2.
as §3

[4] = test system: wild-type HBV genome-transfected Hep3B cells (group F2); experiment: crystal violet assay (FIG. 6c); conditions: 1 μM, 120 hours
From the text: (§5) The genome of HBV contains 4 known genes including genes C, X, P and S. To define the role of HBx in cytotoxicity of lapatinib to liver cancer, the plasmids being thankful presents from Dr. Seishi Murakami (J. Virology, 79 (9): 5548-5556, 2005) are used to transiently transfect into the Hep3B cells in the trial (F). […] The plasmid containing an ochre termination signal (CAA to UAA) after codon 7 (at codon 8) in the HBx ORF is used as the group F3. The plasmids are transiently transfected into the Hep3B and HepG2 cells as described above.
(§6) The transfected Hep3B and HepG2 cells are treated with DMSO or 1 μM of lapatinib for 120 hours and the DMSO- or lapatinib-treated cells are analyzed by crystal violet assay.

[5] = test system: wild-type HBV genome-transfected HepG2 cells (group F2); experiment: crystal violet assay (FIG. 6c); conditions: 1 μM, 120 hours
From the text: as §5, §6

[6] = test system: vector-transfected HepG2 cells (group F1); experiment: crystal violet assay (FIG. 6c); conditions: 1 μM, 120 hours
From the text: as §5, §6

[7] = test system: HBx-minus mutant-transfected Hep3B cells (group F3); experiment: crystal violet assay (FIG. 6c); conditions: 1 μM, 120 hours
From the text: as §5, §6

[8] = test system: vector-transfected Hep3B cells (group F1); experiment: crystal violet assay (FIG. 6c); conditions: 1 μM, 120 hours
From the text: as §5, §6

[9] = test system: HBx-minus mutant-transfected HepG2 cells (group F3); experiment: crystal violet assay (FIG. 6c); conditions: 1 μM, 120 hours
From the text: as §5, §6

Hep3B cells [10] = experiment: Western blotting of cleaved PARP and cleaved Caspase-3; assay type: cell-based
Protocol: (§7) Western blotting is performed with anti-PARP antibody (1: 1,000, purchased from Cell Signaling) and anti-Caspase-3 antibody (1: 1,000, purchased from Cell Signaling). The anti-Actin antibody (1: 10,000, purchased from Sigma) is used as an internal control.

Hep3Bx cells [11] = experiment: as above; assay type: cell-based; conditions: higher concentration
Protocol: as §7

[12] = test system: ErbB3-transfected Hep3B cells (group K2); experiment: cell numbers by light and fluorescence microscopy (FIG. 11b-d); assay type: cell-based; conditions: 120 hours
From the text: That is, pDSRed vector is used as a control (group K1) and the ErbB3 protein-expressing plasmid constructed with primers with sequences set forth in SEQ ID NOs. 11 and 12 is used as the group K2.
Cell numbers of the vector- or ErbB3-transfected Hep3B cells are monitored using a fluorescence microscope with an excitation wavelength of 535 nm. […] The cell number of the lapatinib-treated vector-transfected Hep3B cells divides by the cell number of the DMSO-treated vector-transfected Hep3B cells and the cell number of the lapatinib-treated ErbB3-transfected Hep3B cells divides by the cell number of the DMSO-treated ErbB3-transfected Hep3B cells. As a result, after lapatinib treatment for 120 hours, the quantitative cell viability of ErbB3-transfected Hep3B cells is merely smaller than 20%. That is, ErbB3 transfection induces […] of Hep3B cells to lapatinib.

[13] = test system: vector-transfected Hep3B cells (group D1); experiment: cell viability after lapatinib treatment (FIG. 4b); assay type: cell-based
liver cancers = conditions: clinical trial; cited from earlier work
[14] = test system: vector-virus transduced Hep3B cells (group E1); experiment: cell viability after lapatinib treatment (FIG. 5b); assay type: cell-based
From the text: as §4
(§8) That is, pDEST-V5 vector is used as a control (group E1) and the HBx plasmid expressing HBx expression protein constructed with primers with sequences set forth in SEQ ID NOs. 7 and 8 is used as the group E2.
(§9) The plasmids are virus transduced into the Hep3B cells as the following procedure: the Hep3B cells are inoculated in 3.5-cm petri dishes with concentration of 2×10^5 cells per petri dish. After incubating for 24 hours, virus with 100 MOI is used to transduce the plasmids into the cultured Hep3B cells. Fresh media are replaced after 16 hours and the following experiments are performed 4 days later.

[15] = test system: HBx-virus transduced Hep3B cells (group E2); experiment: cell viability after lapatinib treatment (FIG. 5b); assay type: cell-based
From the text: as §4, §8, §9

[16] = test system: vector-transfected Hep3B cells (group D1); experiment: crystal violet staining (FIG. 4c); assay type: cell-based; conditions: 1 μM, 120 hours
Hep3B cells [17] = experiment: sub-G1 phase arrest by PI flow cytometry; assay type: cell-based; conditions: 120 hours, different concentrations
Protocol: (§10) The Hep3B and Hep3Bx cells are inoculated in 3.5-cm petri dishes, respectively. After the Hep3B and Hep3Bx cells cover 50 to 60% of the 3.5-cm petri dishes, 3 mL of fresh medium with different concentrations of lapatinib is added, followed by incubation at 37° C. for 120 hours. The cultured Hep3B and Hep3Bx cells are resuspended in 3 mL of 75% ethanol in a concentration of 1.5×10^5 cells per mL and fixed at −20° C. for at least 2 hours. Finally, the fixed Hep3B and Hep3Bx cells are mixed with 0.5 mL of PI buffer at 37° C. for 30 minutes. The sub-G1 phase arresting cells with a DNA content less than 2n, which are usually the result of apoptotic DNA fragmentation are detected and measured by a sub-G1 peak in the fluorescence histogram of flow cytometry.

Hep3Bx cells [18] = experiment: sub-G1 phase arrest by PI flow cytometry; assay type: cell-based; conditions: 120 hours, different concentrations
Protocol: as §10

Hep3B cells [19] = experiment: MTT cytotoxicity assay; assay type: cell-based; conditions: 72 hours, 0-10 μM
Protocol: (§11) In the following trials, liver cancer cells including Hep3B, Hep3Bx, HepG2 and HepG2x cells are used. The Hep3Bx and HepG2x cells, derived from the Hep3B and HepG2 cells, respectively, are cell lines constitutively expressing HBx. All of the liver cancer cells are incubated in a 37° C. incubator. DME/F12 with 10% FBS is used as media for incubating the cell lines. Moreover, lapatinib is dissolved in DMSO with different concentration.
(§12) Cytotoxicity of lapatinib to the Hep3B and Hep3Bx cells is monitored using the MTT 3-(4,5-dimethylthiazol-2-yl)-2,5-diphenyltetrazolium bromide assay. First, the Hep3B and Hep3Bx cells are inoculated in a 96-well pate with 5,000-10,000 cells per well. After incubating at 37° C. for 24 hours, 0, 0.1, 0.5, 1, 5 and 10 μM of lapatinib is added into the medium for further incubation at 37° C. for 72 hours, respectively. 0.025 mL of MTT solution ([…] of MTT dissolved in 1 mL of 1×PBS) is added into 0.1 mL of the medium, followed by incubating at 37° C. for 4 hours. Succinate dehydrogenase, bound to the inner mitochondrial membrane of the living cells, is capable of reducing MTT to its insoluble formazan, which has a purple color. Therefore, after removing the supernatants, 0.1 mL of DMSO is added to dissolve the insoluble formazan into a colored solution.

Hep3Bx cells [20] = experiment: MTT cytotoxicity assay; assay type: cell-based; conditions: 72 hours, 0-10 μM
Protocol: as §11, §12

HBx in Hep3Bx cells = experiment: siRNA silencing of HBx, Western blotting (FIG. 9e); assay type: cell-based; conditions: 4-day posttransfection
Protocol: HBx-specific siRNA with a sequence as set forth in SEQ ID NO: 9 and a control siRNA with a sequence as set forth in SEQ ID NO: 10 are used to further confirm the relationship between HBx and ErbB3 in the Hep3Bx cells.
as §1

## ErbB3-specific siRNA: ErbB3-specific siRNA with a sequence as set forth in SEQ ID NO: 13 (GCGATGCTGAGAACCAATA; listed as DNA, chemistry not given here)
ErbB3 in Hep3Bx cells
  mRNA level of ErbB3: decreases mRNA level of ErbB3
  protein level of ErbB3: decreased protein level of ErbB3

## CS(=O)(=O)CCNCc1ccc(-c2ccc3ncnc(Nc4ccc(OCc5cccc(F)c5)c(Cl)c4)c3c2)o1 [lapatinib]
[1]
  tolerance to lapatinib (crystal violet staining): intolerance to lapatinib
[2]
  cytotoxicity (crystal violet staining): significant cytotoxicity
[3]
  concentration at which lapatinib shows cytotoxicity: 1000 nM
[4]
  cytotoxicity (crystal violet assay): obvious cytotoxicity
[5]
  cytotoxicity (crystal violet assay): significant cytotoxicity
[6]
  cytotoxicity (crystal violet assay): slight cytotoxicity
[7]
  cytotoxicity (crystal violet assay): no cytotoxicity
[8]
  cytotoxicity (crystal violet assay): no cytotoxicity
[9]
  cytotoxicity (crystal violet assay): slight cytotoxicity
Hep3B cells [10]
  level of cleaved PARP and cleaved Caspase-3: does not increase the level of cleaved PARP and cleaved Caspase-3
Hep3Bx cells [11]
  level of cleaved PARP and cleaved Caspase-3: higher level of cleaved PARP and cleaved Caspase-3
[12]; ErbB3-transfected Hep3B cells (group K2), in comparison to vector-transfected cells
  cell numbers (light microscopy): reduction of cell numbers
[12]; ErbB3-transfected Hep3B cells, lapatinib-treated cell number divided by DMSO-treated cell number, fluorescence microscope
  quantitative cell viability: smaller than 20%
[13]
  concentration at which lapatinib shows cytotoxicity: 5000 nM
Liver cancers
  effectiveness in patients with liver cancers: effective for only part of patients with liver cancers
[14]
  cytotoxicity: no cytotoxicity
[15]
  cells survival: about 60%
  cytotoxicity: significant cytotoxicity
[16]
  cytotoxicity (crystal violet staining): slight cytotoxicity
Hep3B cells [17]
  sub-G1 phase arrest: does not trigger sub-G1 phase arrest
Hep3Bx cells [18]
  sub-G1 phase arrest: the higher the treating concentration is, the more sub-G1 phase arresting cells are observed
Hep3B cells [19]
  lapatinib concentration at which cells show intolerance: more than 5 μM
Hep3Bx cells [20]
  lapatinib concentration at which cells show intolerance: more than 0.1 μM

## HBx-specific siRNA: HBx-specific siRNA with a sequence as set forth in SEQ ID NO: 9 (GGTTAAAGGTCTTTGTATT; listed as DNA, chemistry not given here)
HBx in Hep3Bx cells
  protein level of ErbB3: decreased protein level of ErbB3
  protein level of HBx: decreases protein level of HBx
